Where two headings read alike, the source gives them in different places.
What was measured:
Y72W CrAS3MT = type: binding, Chlamydomonas reinhardtii
CrAS3MT [1] = molecular target: T1, CrAS3MT (Chlamydomonas reinhardtii, UniProt K0BVM7); assay: biochemical; type: biochemical
T1 sequence (K0BVM7 1-379): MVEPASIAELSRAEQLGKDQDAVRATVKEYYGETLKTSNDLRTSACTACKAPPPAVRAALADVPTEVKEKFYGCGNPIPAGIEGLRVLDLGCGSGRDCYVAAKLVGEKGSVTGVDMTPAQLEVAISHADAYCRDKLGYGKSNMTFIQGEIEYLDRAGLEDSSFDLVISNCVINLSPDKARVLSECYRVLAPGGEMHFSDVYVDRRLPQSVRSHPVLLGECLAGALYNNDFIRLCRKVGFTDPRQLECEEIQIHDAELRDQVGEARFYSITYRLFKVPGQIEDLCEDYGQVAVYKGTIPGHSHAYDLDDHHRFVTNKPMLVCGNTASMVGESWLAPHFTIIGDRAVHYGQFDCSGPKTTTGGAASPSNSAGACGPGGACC

CrAS3MT [2] = molecular target: T1, CrAS3MT; type: biochemical
SAM methyltransferases = details: read-out: IC50 for SAM methyltransferases; cited from earlier work

Compound: CSS(C)(=O)=O [MMTS, methylmethanethiosulfonate]
- effect on quenching of Y72W by As(III) (Y72W CrAS3MT): significant reduction in quenching
- effect on the fluorescence of Y72W (quenching) (Y72W CrAS3MT): quenched
- protein fluorescence quenching at 20 μM MMTS (Y72W CrAS3MT): not substantially quenched
- IC50 (CrAS3MT [1]; read-out: IC50 for inhibition of SAH production (half-maximal inhibition)): 43 µM

Compound: CCN1C(=O)C=CC1=O [NEM, N-ethylmaleimide]
- IC50 (CrAS3MT [1]): 140 µM
- effect on arsenic methylation (CrAS3MT [2]): completely inhibited

Compound: [Sb+3] [Sb(III)]
- effect on the fluorescence of Y72W (quenching) (Y72W CrAS3MT): most quenching at the lowest concentration

Compound: Nc1ncnc2c1ncn2[C@@H]1O[C@H](CC(N)CCC(N)C(=O)O)[C@@H](O)[C@H]1O (stereo partly shown) [sinefungin, 5′-deoxy-5′-(1,4-diamino-4-carboxybutyl)adenosine]
- effect on As(III)-induced fluorescence quenching (Y72W CrAS3MT): no effect
- quenching of Y72W fluorescence by sinefungin (Y72W CrAS3MT): did not quench
- IC50 (CrAS3MT [1]): 0.5 µM
- effect on formation of DMAs(V) (CrAS3MT [2]): significantly inhibited
- IC50 (SAM methyltransferases): 0.1 to 20 µM

Compound: arsenite [As(III)]
- As(III) concentration at which activity could be detected (CrAS3MT [1]): 10^−8 molar
